For one assay, the target named is T1, Cereblon (CRBN) protein (Homo sapiens, UniProt Q96SW2).
T1 construct: purchased Eurofins (E3scan service); host or cells: HEK-293
Description: CRBN binding affinity, E3scan (Eurofins) competition binding with qPCR read-out. The settings on record: lower % Ctrl = stronger binding, DMSO = 100 % Ctrl, lenalidomide = 0 % Ctrl. How it is done:
Specifically, CRBN was produced using a HEK-293 cell line and labeled with DNA for qPCR detection. Streptavidin-coated magnetic beads were treated with a biotinylated small-molecule ligand at room temperature for 30 minutes to generate an affinity resin for E3scan analysis. The liganded beads were blocked with excess biotin and washed with a blocking buffer (SeaBlock (Pierce), 1 % BSA, 0.05 % Tween 20, 1 mM DTT) to remove unbound ligands and prevent non-specific binding. […] The test compound was prepared as a 100× stock in 100 % DMSO and diluted directly into the assay solution. All reactions were performed in a polypropylene 384-well plate with a final reaction volume of 0.02 mL. […] The CRBN concentration in the eluate was measured by qPCR. […] A lower '% Ctrl' indicates a stronger binding affinity. […] ((test compound signal−positive control signal)/(negative control signal−positive control signal)) × 100 [formula]
On the technique in general: In qPCR the cycle at which signal appears reflects the starting amount.

The subject of assay [1] is T-cell leukemia cell line Jurkat. In words: Cell viability assay (Cell Counting Kit-8), Jurkat. Type of assay: cell-based. The settings on record: Homo sapiens, 72 hours, CCK-8, absorbance 450 nm. How it is done:
(§1) To evaluate the cytotoxicity of the compounds synthesized in the Preparation Examples against cancer cells, a cell viability assay following treatment with the synthesized compounds was performed using a T-cell leukemia cell line Jurkat (KCLB, Cat# 40152), a human acute monocytic leukemia cell line MV-4-11 (ATCC, Cat# CRL-9591), and a human multiple myeloma cell line MM.1S (ATCC, Cat# CRL-2974).
(§2) As a culture medium for the cell lines, an RPMI medium containing 10 % heat-inactivated FBS and 1 % penicillin/streptomycin (P/S) antibiotics was used. The culture medium was stored refrigerated and warmed in a 37 °C water bath before use. Each cell line was used for the test after a stabilization period of at least 2 weeks after thawing, and cell culture was performed based on information provided by the cell line manufacturer regarding the thawing and subculture conditions.
(§3) The Jurkat, MV-4-11, or MM.1S cell line was seeded in a 96-well plate at a density of 1 × 10^4 cells/well and incubated in a 37 °C CO2 incubator overnight. After incubation, a prepared test compound was applied to each cell line, and the cells were incubated in a 37 °C CO2 incubator for 72 hours. After 72 hours of incubation, a Cell Counting Kit-8 (Dojindo, Cat# CK04-20) reagent was added, and the cells were incubated in a 37 °C CO2 incubator. Then, the absorbance was measured at 450 nm using a SpectraMax M3 Microplate Reader (N=2, duplicate measurement). The evaluation concentrations for evaluating the cytotoxicity of the compounds were 10 points: 100 µM, 20 µM, 4 µM, 0.8 µM, 0.16 µM, 0.032 µM, 0.0064 µM, 0.00128 µM, 0.000256 µM, and 0 µM, and the test was performed at 2 wells/concentration point (n=2). A GI50 was derived using a GraphPad Prism program.
(Formazan colour is commonly taken as a measure of viable cells.)

Assay [2] deals with human acute monocytic leukemia cell line MV-4-11. Description: Cell viability assay (Cell Counting Kit-8), MV-4-11. Type of assay: cell-based. The settings on record: MV4-11, 72 hours, CCK-8, absorbance 450 nm. As for the experimental part:
as §1, §2, §3

Assay [3] relates to human multiple myeloma cell line MM.1S. In words: Cell viability assay (Cell Counting Kit-8), MM.1S. The class given is cell-based. Conditions: MM1.S, 72 hours, CCK-8, absorbance 450 nm. How it is done:
as §1, §2, §3

By GI50 is commonly meant the concentration giving 50% growth inhibition. A higher GI50 goes with lower sensitivity of the cells. As for `O=C1CCC(N2Cc3cc(C(=O)c4ccc(Nc5ccccc5)cc4)ccc3C2=O)C(=O)N1` (stereo not shown) [Compound 15, 3-(1-oxo-5-(4-(phenylamino)benzoyl)isoindolin-2-yl)piperidine-2,6-dione], the “CRBN binding affinity (% Ctrl @ 5µM)” value on Cereblon (CRBN) protein is “A (0 ≤ '% Ctrl' < 0.1)”. The results for the GI50 in assay [1], in assay [2] and in assay [3] were 100 to 1000 nM, ≤ 100 nM and ≤ 100 nM, respectively.

These data come from patent EP4813977A1, “NOVEL COMPOUND AND USE THEREOF” (Protier Biotech Inc., priority 2023, dated 2025).
